Peptide text beside a SMILES is read from it.
Assays:
[1] = Bitter tasting threshold was expressed as log 1/T.; format: functional
Oxytocin receptor = target: T1, Oxytocin receptor (Rattus norvegicus, UniProt P70536); test: Biological activity against Oxytocin receptor in rat
T1 sequence (P70536 whole entry): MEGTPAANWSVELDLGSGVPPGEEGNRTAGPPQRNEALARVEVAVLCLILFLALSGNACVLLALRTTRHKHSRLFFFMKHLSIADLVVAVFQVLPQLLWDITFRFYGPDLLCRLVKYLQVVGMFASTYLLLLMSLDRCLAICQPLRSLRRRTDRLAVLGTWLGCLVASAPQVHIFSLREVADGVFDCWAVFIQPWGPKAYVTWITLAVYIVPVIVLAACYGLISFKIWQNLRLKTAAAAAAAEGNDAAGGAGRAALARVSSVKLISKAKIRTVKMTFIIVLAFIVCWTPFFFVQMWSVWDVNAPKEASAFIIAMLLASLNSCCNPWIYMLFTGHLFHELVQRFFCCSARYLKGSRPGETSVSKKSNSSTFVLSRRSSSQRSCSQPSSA

Substance-K receptor [2] = target: T2, Substance-K receptor (Mesocricetus auratus, UniProt P51144); test: Antagonist activity against Tachykinin receptor 2 was measured by Hamster isolated trachea(HT) assay.; format: functional, tissue-based; conditions: read-out: pA2 (converted)
T2 sequence (P51144 whole entry): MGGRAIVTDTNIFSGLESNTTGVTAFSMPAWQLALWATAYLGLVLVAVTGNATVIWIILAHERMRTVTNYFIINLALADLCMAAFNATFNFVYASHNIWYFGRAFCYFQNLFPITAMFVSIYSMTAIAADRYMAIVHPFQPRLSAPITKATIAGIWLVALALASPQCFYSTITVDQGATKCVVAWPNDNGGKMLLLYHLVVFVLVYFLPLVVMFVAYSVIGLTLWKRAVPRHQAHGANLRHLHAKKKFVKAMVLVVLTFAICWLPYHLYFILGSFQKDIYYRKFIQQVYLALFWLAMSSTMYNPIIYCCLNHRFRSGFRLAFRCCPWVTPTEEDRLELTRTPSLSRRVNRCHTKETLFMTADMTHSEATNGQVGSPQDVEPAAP

Substance-K receptor [3] = target: T3, Substance-K receptor (Rattus norvegicus, UniProt P16610); test: Antagonism against Tachykinin receptor 2 in rat vas deferens(RVD); format: functional; conditions: read-out: pA2 (converted)
T3 sequence (P16610 whole entry): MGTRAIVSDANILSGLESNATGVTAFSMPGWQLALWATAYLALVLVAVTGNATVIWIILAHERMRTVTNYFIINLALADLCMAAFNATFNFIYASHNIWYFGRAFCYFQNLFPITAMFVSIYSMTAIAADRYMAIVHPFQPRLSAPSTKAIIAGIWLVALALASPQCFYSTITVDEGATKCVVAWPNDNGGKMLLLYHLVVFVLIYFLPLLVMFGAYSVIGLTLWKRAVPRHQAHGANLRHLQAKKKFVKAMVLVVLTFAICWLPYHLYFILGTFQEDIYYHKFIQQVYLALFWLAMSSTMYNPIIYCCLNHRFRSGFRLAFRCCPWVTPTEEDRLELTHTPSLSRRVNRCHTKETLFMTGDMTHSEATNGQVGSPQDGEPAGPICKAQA

Substance-K receptor [4] = target: T4, Substance-K receptor (Oryctolagus cuniculus, UniProt P79218); test: Antagonist activity against Tachykinin receptor 2 was measured by Rabbit pulmonary artery(RPA) assay.; format: functional; conditions: read-out: pA2 (converted)
T4 sequence (P79218 whole entry): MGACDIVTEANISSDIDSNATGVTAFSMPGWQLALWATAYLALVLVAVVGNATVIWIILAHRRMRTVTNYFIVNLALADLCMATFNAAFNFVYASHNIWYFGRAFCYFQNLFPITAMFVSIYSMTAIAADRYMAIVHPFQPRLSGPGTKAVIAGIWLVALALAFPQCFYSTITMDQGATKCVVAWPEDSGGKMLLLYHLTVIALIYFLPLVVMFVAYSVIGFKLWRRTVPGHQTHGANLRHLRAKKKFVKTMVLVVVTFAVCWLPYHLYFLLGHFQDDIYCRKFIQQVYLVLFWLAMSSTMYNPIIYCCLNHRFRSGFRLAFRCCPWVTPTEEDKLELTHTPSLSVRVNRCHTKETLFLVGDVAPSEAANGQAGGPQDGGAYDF

[5] = target: Angiotensin-converting enzyme (Homo sapiens, UniProt P12821); test: Biological activity was measured against Angiotensin I converting enzyme; conditions: read-out: Log 1/IC50 (converted)
Sequence of Angiotensin-converting enzyme (P12821 whole entry): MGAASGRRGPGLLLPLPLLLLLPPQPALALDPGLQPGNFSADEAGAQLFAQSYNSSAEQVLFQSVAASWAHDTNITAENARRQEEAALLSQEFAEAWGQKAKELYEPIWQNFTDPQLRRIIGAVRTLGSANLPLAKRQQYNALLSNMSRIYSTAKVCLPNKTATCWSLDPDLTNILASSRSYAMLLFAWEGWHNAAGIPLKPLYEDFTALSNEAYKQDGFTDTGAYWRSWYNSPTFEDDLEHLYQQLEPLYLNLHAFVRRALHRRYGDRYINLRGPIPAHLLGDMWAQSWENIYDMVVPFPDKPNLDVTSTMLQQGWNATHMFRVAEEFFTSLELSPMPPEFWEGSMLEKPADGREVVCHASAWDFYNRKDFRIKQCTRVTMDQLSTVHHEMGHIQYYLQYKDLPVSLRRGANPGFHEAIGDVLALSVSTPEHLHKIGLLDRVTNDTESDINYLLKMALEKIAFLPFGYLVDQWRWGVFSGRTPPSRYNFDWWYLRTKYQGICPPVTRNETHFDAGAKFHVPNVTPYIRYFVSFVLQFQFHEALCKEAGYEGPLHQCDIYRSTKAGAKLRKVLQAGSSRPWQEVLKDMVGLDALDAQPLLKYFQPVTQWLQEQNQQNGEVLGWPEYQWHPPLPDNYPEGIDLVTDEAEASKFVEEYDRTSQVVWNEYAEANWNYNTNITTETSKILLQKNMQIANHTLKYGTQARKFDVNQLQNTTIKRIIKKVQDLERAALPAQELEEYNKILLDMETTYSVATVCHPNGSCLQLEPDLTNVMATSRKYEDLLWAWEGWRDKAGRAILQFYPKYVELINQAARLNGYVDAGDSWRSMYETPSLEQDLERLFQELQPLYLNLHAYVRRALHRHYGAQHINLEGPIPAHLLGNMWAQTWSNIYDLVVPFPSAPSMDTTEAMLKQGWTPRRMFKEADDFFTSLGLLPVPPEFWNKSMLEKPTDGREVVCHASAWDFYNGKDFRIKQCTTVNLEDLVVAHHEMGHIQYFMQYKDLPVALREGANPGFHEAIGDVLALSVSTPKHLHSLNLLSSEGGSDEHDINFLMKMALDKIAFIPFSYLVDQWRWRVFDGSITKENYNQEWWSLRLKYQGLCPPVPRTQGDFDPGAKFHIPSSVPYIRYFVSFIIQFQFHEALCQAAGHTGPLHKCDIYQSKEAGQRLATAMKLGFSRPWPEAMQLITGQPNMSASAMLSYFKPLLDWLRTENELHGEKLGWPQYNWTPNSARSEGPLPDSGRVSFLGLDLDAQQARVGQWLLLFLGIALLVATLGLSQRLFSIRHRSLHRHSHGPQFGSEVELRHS

Compound | Log 1/T [1] | pA2 (Oxytocin receptor) | Kb (Substance-K receptor [2]) | Kb (Substance-K receptor [3]) | Kb (Substance-K receptor [4]) | IC50 [5]
CC(C)C[C@H](NC(=O)[C@@H](N)C(C)C)C(=O)O (H-Val-Leu-OH) | 2 | – | – | – | – | –
CC[C@H](C)[C@H](NC(=O)[C@@H](Cc1c[nH]c2ccccc12)NC(=O)CC1(S)CCCCC1)C(=O)N[C@H](CCC(N)=O)C(=O)N[C@@H](CC(N)=O)C(=O)N[C@@H](CS)C(=O)N1CCC[C@H]1C(=O)N[C@@H](CCCN=C(N)N)C(=O)NCC(N)=O | – | 5.24 | – | – | – | –
CC(C)[C@H](NC(=O)[C@@H](Cc1c[nH]c2ccccc12)NC(=O)[C@H](Cc1ccc(O)cc1)NC(=O)[C@@H](N)CC(=O)O)C(=O)N[C@H](Cc1c[nH]c2ccccc12)C(=O)N[C@H](Cc1c[nH]c2ccccc12)C(=O)NCC(=O)O | – | – | 0.141 µM | 0.0347 µM | 1.48 µM | –
CSCC[C@H](NC(=O)[C@H](CC(C)C)NC(=O)CNC(=O)[C@@H](Cc1c[nH]c2ccccc12)NC(=O)[C@H](Cc1ccccc1)NC(=O)[C@@H](Cc1c[nH]c2ccccc12)NC(=O)[C@@H](N)CC(=O)O)C(=O)O | – | – | 9.12 µM | 7.76 µM | 5.89 µM | –
CC[C@H](C)[C@H](NC(=O)[C@@H](Cc1c[nH]c2ccccc12)NC(=O)CC1(S)CCCCC1)C(=O)N[C@H](CCCNC(N)=O)C(=O)N[C@@H](CC(N)=O)C(=O)N[C@@H](CS)C(=O)N1CCC[C@H]1C(=O)N[C@@H](CCCN=C(N)N)C(=O)NCC(N)=O | – | 5.51 | – | – | – | –
C[C@H](N)C(=O)N[C@@H](Cc1ccccc1)C(=O)O | 1.72 | – | – | – | – | 191 µM
CCC(C)[C@H](NC(=O)[C@@H](N)[C@@H](C)CC)C(=O)O (single isomer, unassigned) | 2.26 | – | – | – | – | –
CC[C@H](C)[C@@H]1NC(=O)[C@@H](Cc2c[nH]c3ccccc23)NC(=O)CC2(CCCCC2)SSC[C@@H](C(=O)N2CCC[C@H]2C(=O)N[C@@H](CCCN=C(N)N)C(=O)NCC(N)=O)NC(=O)[C@H](CC(N)=O)NC(=O)[C@@H]([C@H](C)O)NC1=O | – | 4.95 | – | – | – | –
CC(C)C[C@H](NC(=O)[C@@H](Cc1c[nH]c2ccccc12)NC(=O)[C@@H](NC(=O)[C@@H](Cc1c[nH]c2ccccc12)NC(=O)[C@H](Cc1ccc(O)cc1)NC(=O)[C@@H](N)CC(=O)O)C(C)C)C(=O)N[C@@H](CCCN=C(N)N)C(=O)O | – | – | 0.646 µM | 0.224 µM | 0.191 µM | –
H-DYYVYYR-OH | – | – | 100 µM | 9.33 µM | 100 µM | –
CC[C@H](C)[C@H](N)C(=O)N[C@H](C(=O)O)C(C)O (single isomer, unassigned) | 1.49 | – | – | – | – | –
CSCC[C@H](NC(=O)[C@@H](Cc1c[nH]c2ccccc12)NC(=O)[C@@H](Cc1c[nH]c2ccccc12)NC(=O)[C@@H](NC(=O)[C@@H](Cc1c[nH]c2ccccc12)NC(=O)[C@H](Cc1ccc(O)cc1)NC(=O)[C@@H](N)CC(=O)O)C(C)C)C(=O)O | – | – | 1.45 µM | 0.38 µM | 0.0891 µM | –
CC(C)[C@H](NC(=O)[C@@H](Cc1c[nH]c2ccccc12)NC(=O)[C@H](Cc1ccc(O)cc1)NC(=O)[C@@H](N)CC(=O)O)C(=O)N[C@H](Cc1c[nH]c2ccccc12)C(=O)N[C@H](Cc1c[nH]c2ccccc12)C(=O)N[C@@H](CCC(=O)O)C(=O)O | – | – | 0.427 µM | 0.0309 µM | 2.63 µM | –
CSCC[C@H](NC(=O)[C@H](CC(C)C)NC(=O)CNC(=O)[C@@H](Cc1c[nH]c2ccccc12)NC(=O)[C@H](Cc1ccccc1)NC(=O)[C@H](Cc1ccc(O)cc1)NC(=O)[C@@H](N)CC(=O)O)C(=O)O | – | – | 14.8 µM | 14.1 µM | 100 µM | –
H-DYPVWWR-OH | – | – | 17.4 µM | 4.37 µM | 12.9 µM | –
CC(C)[C@H](NC(=O)[C@@H](Cc1c[nH]c2ccccc12)NC(=O)[C@H](Cc1ccc(O)cc1)NC(=O)[C@@H](N)CC(=O)O)C(=O)N[C@H](Cc1c[nH]c2ccccc12)C(=O)N[C@H](Cc1c[nH]c2ccccc12)C(=O)N[C@@H](Cc1ccc(O)cc1)C(=O)O | – | – | 1.74 µM | 0.191 µM | 100 µM | –
CC[C@H](C)[C@@H]1NC(=O)[C@@H](Cc2c[nH]c3ccccc23)NC(=O)CC2(CCCCC2)SSC(C)(C)[C@H](C(=O)N2CCC[C@H]2C(=O)N[C@@H](CCCN=C(N)N)C(=O)NCC(N)=O)NC(=O)[C@H](CC(N)=O)NC(=O)[C@H](CCC(=O)O)NC1=O | – | 7.98 | – | – | – | –
NCC(=O)N[C@@H](Cc1ccccc1)C(=O)O (H-Gly-Phe-OH) | 1.8 | – | – | – | – | 631 µM
CC(C)C[C@H](NC(=O)CN)C(=O)O | 1.68 | – | – | – | – | 2510 µM
CC(C)[C@H](NC(=O)[C@H](Cc1c[nH]c2ccccc12)NC(=O)[C@H](Cc1ccc(O)cc1)NC(=O)[C@@H](N)CC(=O)O)C(=O)N[C@H](Cc1c[nH]c2ccccc12)C(=O)N[C@H](Cc1c[nH]c2ccccc12)C(=O)N[C@@H](CCCN=C(N)N)C(=O)O | – | – | 15.5 µM | 25.7 µM | 100 µM | –
CC(C)[C@H](NC(=O)[C@@H](Cc1c[nH]c2ccccc12)NC(=O)[C@H](Cc1ccc(O)cc1)NC(=O)[C@@H](N)CC(=O)O)C(=O)N[C@H](Cc1c[nH]c2ccccc12)C(=O)N[C@H](Cc1c[nH]c2ccccc12)C(=O)N[C@H](Cc1c[nH]c2ccccc12)C(=O)O | – | – | 1.38 µM | 0.155 µM | 1.62 µM | –
C[C@H](NC(=O)[C@@H](Cc1c[nH]c2ccccc12)NC(=O)[C@H](Cc1ccc(O)cc1)NC(=O)[C@@H](N)CC(=O)O)C(=O)N[C@H](Cc1c[nH]c2ccccc12)C(=O)N[C@H](Cc1c[nH]c2ccccc12)C(=O)N[C@@H](CCCCN)C(=O)O | – | – | 0.355 µM | 0.295 µM | 1.35 µM | –
CC(C)[C@@H](NC(=O)[C@@H](Cc1c[nH]c2ccccc12)NC(=O)[C@@H](Cc1ccc(O)cc1)NC(=O)[C@@H](N)CC(=O)O)C(=O)N[C@H](Cc1c[nH]c2ccccc12)C(=O)N[C@H](Cc1c[nH]c2ccccc12)C(=O)N[C@H](CCCN=C(N)N)C(=O)O | – | – | 1.1 µM | 0.851 µM | 0.407 µM | –
CC(C)[C@H](NC(=O)[C@@H](Cc1c[nH]c2ccccc12)NC(=O)[C@@H](Cc1c[nH]c2ccccc12)NC(=O)[C@@H](N)CC(=O)O)C(=O)N[C@H](Cc1c[nH]c2ccccc12)C(=O)N[C@H](Cc1c[nH]c2ccccc12)C(=O)N[C@@H](CCCN=C(N)N)C(=O)O | – | – | 31.6 µM | 2.4 µM | 100 µM | –
CC(C)[C@H](NC(=O)[C@@H](Cc1c[nH]c2ccccc12)NC(=O)[C@H](Cc1ccc(O)cc1)NC(=O)[C@@H](N)CC(=O)O)C(=O)N[C@H](Cc1c[nH]c2ccccc12)C(=O)N[C@H](Cc1c[nH]c2ccccc12)C(=O)N[C@@H](CCCN=C(N)N)C(=O)O | – | – | 1.58 µM | 0.251 µM | 0.0224 µM | –
CC(C)[C@H](NC(=O)[C@@H](Cc1c[nH]c2ccccc12)NC(=O)[C@H](Cc1ccc(O)cc1)NC(=O)[C@@H](N)CC(=O)O)C(=O)N[C@H](Cc1c[nH]c2ccccc12)C(=O)N[C@H](Cc1c[nH]c2ccccc12)C(=O)N[C@@H](Cc1ccccc1)C(=O)O | – | – | 0.933 µM | 0.288 µM | 1.26 µM | –
CC(C)[C@@H](NC(=O)[C@@H](Cc1c[nH]c2ccccc12)NC(=O)[C@@H](Cc1ccc(O)cc1)NC(=O)[C@@H](N)CC(=O)O)C(=O)NCC(=O)N[C@H](Cc1c[nH]c2ccccc12)C(=O)N[C@H](CCCN=C(N)N)C(=O)O | – | – | 0.562 µM | 0.38 µM | 0.263 µM | –
CC(C)[C@H](NC(=O)[C@@H](Cc1c[nH]c2ccccc12)NC(=O)[C@H](Cc1c[nH]c2ccccc12)NC(=O)[C@@H](N)CC(=O)O)C(=O)N[C@H](Cc1c[nH]c2ccccc12)C(=O)N[C@H](Cc1c[nH]c2ccccc12)C(=O)N[C@@H](CCCN=C(N)N)C(=O)O | – | – | 11.2 µM | 0.339 µM | 6.31 µM | –
